Assay results: PMC10221074, “Functional Profiling of the A-Family of Venom Peptides from the Wolf Spider Lycosa shansia” (Toxins, 2023)

Key:
[1] = system: Pseudomonas aeruginosa DSM 50071; test: Antibacterial growth assay (OD600); details: OD600, medium = 100, MH II broth, 37 °C, peptide 200 µM mixed 50 µL + 50 µL with bacteria, Figure 7: 48 h; for Bacterial growth relative to medium, P. aeruginosa (50071), replicate 1: replicate column 1; for Bacterial growth relative to medium, P. aeruginosa (50071), replicate 2: replicate column 2; for Bacterial growth relative to medium, P. aeruginosa (50071), replicate 3: replicate column 3
Method: (§1) Cryo-conserved cultures of selected bacterial strains (Table 4) were transferred to Tryptic Soy Agar (TSA) plates (Carl Roth) with a sterile inoculation loop, sealed with Parafilm (BEMIS, Neenah, WI, USA), and incubated for 1–2 days at 37 °C depending on growth. Single colonies were picked and transferred into 2–3 mL of the Mueller–Hinton II (MH II) broth (BD, Heidelberg, Germany). The bacteria were cultivated overnight, subcultured on fresh medium and grown for 3–4 h before testing at 37 °C, with shaking at 180 rpm. We measured the optical density at 600 nm (OD600) of 1 mL of the bacterial suspensions in polystyrene cuvettes (SARSTED, Nümbrecht, Germany) using an Ultrospec 10 spectrophotometer (Biochrome, Cambridge, UK). We then diluted them with the MH II medium to the preferred OD600 (Table 2). The peptides were dissolved in DMSO to generate 10 mmol/L stocks and diluted with the MH II medium to 200 µM before the assay. We used 10 µg/mL (~40 µg/mL for S. epidermidis) gentamicin and colistin (Sigma-Aldrich, Taufkirchen, Germany), DMSO and the medium only as controls. The bacteria were transferred to 96-multiwell plates with a final volume of 100 µL per well (50 µL bacterial suspension, and 50 µL test peptide). The OD600 was measured at 0, 24 and 48 h using a BioTek Eon microplate reader followed by analysis with Gen5 v2.09.

[2] = system: Pseudomonas aeruginosa DSM 1117; test: Antibacterial growth assay (OD600); details: OD600, medium = 100, MH II broth, 37 °C, peptide 200 µM mixed 50 µL + 50 µL with bacteria, Figure 7: 48 h; for Bacterial growth relative to medium, P. aeruginosa (1117), replicate 1: replicate column 1; for Bacterial growth relative to medium, P. aeruginosa (1117), replicate 2: replicate column 2; for Bacterial growth relative to medium, P. aeruginosa (1117), replicate 3: replicate column 3
Method: as §1

[3] = system: Listeria monocytogenes DSM 20600; test: Antibacterial growth assay (OD600); details: for Antibacterial activity (in words): L. monocytogenes DSM 20600, growth after 48 h; for Bacterial growth relative to medium, L. monocytogenes, replicate 1 / Bacterial growth relative to medium, L. monocytogenes, replicate 2 / Bacterial growth relative to medium, L. monocytogenes, replicate 3: OD600, medium = 100, MH II broth, 37 °C, peptide 200 µM mixed 50 µL + 50 µL with bacteria, Figure 7: 48 h; for Bacterial growth relative to medium, L. monocytogenes, replicate 1: replicate column 1; for Bacterial growth relative to medium, L. monocytogenes, replicate 2: replicate column 2; for Bacterial growth relative to medium, L. monocytogenes, replicate 3: replicate column 3
Method: as §1

[4] = system: Staphylococcus aureus DSM 2569; test: Antibacterial growth assay (OD600); details: for Bacterial growth relative to medium, S. aureus, replicate 1 / Bacterial growth relative to medium, S. aureus, replicate 2 / Bacterial growth relative to medium, S. aureus, replicate 3: OD600, medium = 100, MH II broth, 37 °C, peptide 200 µM mixed 50 µL + 50 µL with bacteria, Figure 7: 48 h; for Bacterial growth relative to medium, S. aureus, replicate 1: replicate column 1; for Bacterial growth relative to medium, S. aureus, replicate 2: replicate column 2; for Bacterial growth relative to medium, S. aureus, replicate 3: replicate column 3; for Antibacterial activity (in words): S. aureus DSM 2569, growth after 48 h
[5] = system: Micrococcus luteus DSM 20030; test: Antibacterial growth assay (OD600); details: for Antibacterial activity (in words): M. luteus DSM 20030, growth after 48 h; for Bacterial growth relative to medium, M. luteus, replicate 1 / Bacterial growth relative to medium, M. luteus, replicate 2 / Bacterial growth relative to medium, M. luteus, replicate 3: OD600, medium = 100, MH II broth, 37 °C, peptide 200 µM mixed 50 µL + 50 µL with bacteria, Figure 7: 48 h; for Bacterial growth relative to medium, M. luteus, replicate 1: replicate column 1; for Bacterial growth relative to medium, M. luteus, replicate 2: replicate column 2; for Bacterial growth relative to medium, M. luteus, replicate 3: replicate column 3
[6] = system: panel of seven bacterial strains; test: Antibacterial growth assay (OD600), statements on the whole panel; assay type: cell-based; details: growth after 48 h
A/Hessen/1/2003 (H3N2) = assay type: cell-based, influenza virus
[7] = system: Escherichia coli BL21(DE3); test: Antibacterial growth assay (OD600); details: for Antibacterial activity (in words): E. coli BL21(DE3), growth after 48 h; for Bacterial growth relative to medium, E. coli, replicate 1 / Bacterial growth relative to medium, E. coli, replicate 2 / Bacterial growth relative to medium, E. coli, replicate 3: OD600, medium = 100, MH II broth, 37 °C, peptide 200 µM mixed 50 µL + 50 µL with bacteria, Figure 7: 48 h; for Bacterial growth relative to medium, E. coli, replicate 1: replicate column 1; for Bacterial growth relative to medium, E. coli, replicate 2: replicate column 2; for Bacterial growth relative to medium, E. coli, replicate 3: replicate column 3
[8] = system: Staphylococcus epidermidis DSM 28319; test: Antibacterial growth assay (OD600); details: for Bacterial growth relative to medium, S. epidermidis, replicate 1 / Bacterial growth relative to medium, S. epidermidis, replicate 2 / Bacterial growth relative to medium, S. epidermidis, replicate 3: OD600, medium = 100, MH II broth, 37 °C, peptide 200 µM mixed 50 µL + 50 µL with bacteria, Figure 7: 48 h; for Bacterial growth relative to medium, S. epidermidis, replicate 1: replicate column 1; for Bacterial growth relative to medium, S. epidermidis, replicate 2: replicate column 2; for Bacterial growth relative to medium, S. epidermidis, replicate 3: replicate column 3; for Antibacterial activity (in words): S. epidermidis DSM 28319, growth after 48 h
Method: as §1

A/Hamburg/05/2009 (H1N1) = assay type: cell-based, influenza virus
[9] = system: B/Malaysia/2506/2004 (B-Mal); assay type: cell-based, influenza virus

Row | Sequence | Bacterial growth relative to medium, P. aeruginosa (50071), replicate 1 [1] | Bacterial growth relative to medium, P. aeruginosa (50071), replicate 2 [1] | Bacterial growth relative to medium, P. aeruginosa (50071), replicate 3 [1] | Bacterial growth relative to medium, P. aeruginosa (1117), replicate 1 [2] | Bacterial growth relative to medium, P. aeruginosa (1117), replicate 2 [2] | Bacterial growth relative to medium, P. aeruginosa (1117), replicate 3 [2] | Bacterial growth relative to medium, L. monocytogenes, replicate 1 [3] | Bacterial growth relative to medium, L. monocytogenes, replicate 2 [3] | Bacterial growth relative to medium, L. monocytogenes, replicate 3 [3] | Bacterial growth relative to medium, S. aureus, replicate 1 [4] | Bacterial growth relative to medium, S. aureus, replicate 2 [4] | Bacterial growth relative to medium, S. aureus, replicate 3 [4] | Bacterial growth relative to medium, M. luteus, replicate 1 [5] | Bacterial growth relative to medium, M. luteus, replicate 2 [5] | Bacterial growth relative to medium, M. luteus, replicate 3 [5] | Antibacterial activity over the panel (in words) [6] | Viability of infected cells relative to aprotinin, Replicate 1 (A/Hessen/1/2003 (H3N2)) | Viability of infected cells relative to aprotinin, Replicate 2 (A/Hessen/1/2003 (H3N2)) | Viability of infected cells relative to aprotinin, Replicate 3 (A/Hessen/1/2003 (H3N2)) | Bacterial growth relative to medium, E. coli, replicate 1 [7] | further results
1 | SLLGLLDVVKNTVGQ [LS-AMP-A11] | 97.4528 | 114.818 | 88.0117 | 82.0725 | 95.9276 | 84.5049 | 57.2028 | 67.6393 | 84.2183 | 50.8023 | 58.8947 | 79.7231 | 56.0386 | 92.3422 | 31.1812 | inhibited the growth of most of the bacteria except two | 0.1919 | 0.09823 | 0.08306 | 64.587 | Antibacterial activity (in words) [3]: able to decrease the growth; Antibacterial activity (in words) [4]: able to decrease the growth; Antibacterial activity (in words) [5]: able to decrease the growth; Antibacterial activity (in words) [7]: able to decrease the growth; Bacterial growth relative to medium, E. coli, replicate 2 [7]: 63.905; Bacterial growth relative to medium, E. coli, replicate 3 [7]: 36.8825; Bacterial growth relative to medium, S. epidermidis, replicate 1 [8]: 49.2953; Bacterial growth relative to medium, S. epidermidis, replicate 2 [8]: 44.2655; Bacterial growth relative to medium, S. epidermidis, replicate 3 [8]: 33.4715; Antibacterial activity (in words) [8]: able to decrease the growth; Viability of infected cells relative to aprotinin, Replicate 1 (A/Hamburg/05/2009 (H1N1)): 0.05004; Viability of infected cells relative to aprotinin, Replicate 2 (A/Hamburg/05/2009 (H1N1)): 0.04235; Viability of infected cells relative to aprotinin, Replicate 3 (A/Hamburg/05/2009 (H1N1)): 0.04417; Viability of infected cells relative to aprotinin, Replicate 4 (A/Hamburg/05/2009 (H1N1); […], replicate 4 (additional internal control)): 0.03789; Viability of infected cells relative to aprotinin, Replicate 5 (A/Hamburg/05/2009 (H1N1); […], replicate 5 (additional internal control)): 0.01667; Viability of infected cells relative to aprotinin, Replicate 1 [9]: 0.04707; Viability of infected cells relative to aprotinin, Replicate 2 [9]: 0.04802; Viability of infected cells relative to aprotinin, Replicate 3 [9]: 0.0552
2 | SLFGLLDLVKSKVGQTGLL [LS-AMP-A1] | 100.105 | 111.979 | 89.7927 | 79.0357 | 70.5187 | 73.1051 | 93.4804 | 90.3626 | 102.296 | 106.033 | 110.791 | 108.193 | 73.9935 | 135.023 | 50.2152 | limited activity | 0.185 | 0.1781 | 0.1313 | 153.553 | Bacterial growth relative to medium, E. coli, replicate 2 [7]: 169.757; Bacterial growth relative to medium, E. coli, replicate 3 [7]: 114.343; Bacterial growth relative to medium, S. epidermidis, replicate 1 [8]: 132.924; Bacterial growth relative to medium, S. epidermidis, replicate 2 [8]: 152.819; Bacterial growth relative to medium, S. epidermidis, replicate 3 [8]: 103.22; Viability of infected cells relative to aprotinin, Replicate 1 (A/Hamburg/05/2009 (H1N1)): 0.03121; Viability of infected cells relative to aprotinin, Replicate 2 (A/Hamburg/05/2009 (H1N1)): 0.03837; Viability of infected cells relative to aprotinin, Replicate 3 (A/Hamburg/05/2009 (H1N1)): 0.04316; Viability of infected cells relative to aprotinin, Replicate 1 [9]: 0.04827; Viability of infected cells relative to aprotinin, Replicate 2 [9]: 0.03878; Viability of infected cells relative to aprotinin, Replicate 3 [9]: 0.05872
3 | SLLGLLDVVKNKVGQIG [LS-AMP-A4] | 97.6103 | 110.944 | 86.4168 | 67.901 | 83.7452 | 58.9242 | 47.529 | 64.3679 | 81.7792 | 64.8588 | 69.2609 | 80.5088 | 48.8727 | 93.5811 | 47.3458 | inhibited the growth of most of the bacteria except two | 0.1134 | 0.06953 | 0.04762 | 63.5471 | Antibacterial activity (in words) [3]: able to decrease the growth; Antibacterial activity (in words) [4]: able to decrease the growth; Antibacterial activity (in words) [5]: able to decrease the growth; Antibacterial activity (in words) [7]: able to decrease the growth; Bacterial growth relative to medium, E. coli, replicate 2 [7]: 64.6002; Bacterial growth relative to medium, E. coli, replicate 3 [7]: 38.7121; Bacterial growth relative to medium, S. epidermidis, replicate 1 [8]: 50.7409; Bacterial growth relative to medium, S. epidermidis, replicate 2 [8]: 49.8658; Bacterial growth relative to medium, S. epidermidis, replicate 3 [8]: 70.1306; Antibacterial activity (in words) [8]: able to decrease the growth; Viability of infected cells relative to aprotinin, Replicate 1 (A/Hamburg/05/2009 (H1N1)): 0.03111; Viability of infected cells relative to aprotinin, Replicate 2 (A/Hamburg/05/2009 (H1N1)): 0.02825; Viability of infected cells relative to aprotinin, Replicate 3 (A/Hamburg/05/2009 (H1N1)): 0.01475; Viability of infected cells relative to aprotinin, Replicate 1 [9]: 0.05108; Viability of infected cells relative to aprotinin, Replicate 2 [9]: 0.07356; Viability of infected cells relative to aprotinin, Replicate 3 [9]: 0.0764
